Data reported in ChEMBL document CHEMBL5614443, “Hybrids of 3-Hydroxypyridin-4(1H)-ones and Long-Chain 4-Aminoquinolines as Potent Biofilm Inhibitors of Pseudomonas aeruginosa Potentiate Tobramycin and Polymyxin B Activity” (J Med Chem, 2024).
Calls of active or inactive are those of the source. The rule behind the calls is not given here.

Legend:
Pseudomonas aeruginosa [1] = assay: Synergistic antibacterial activity against Pseudomonas aeruginosa clinical isolate 0815 assessed as reduction in bacterial viability at 10 to 50 uM incubated for 24 hrs in presence of 1/2 MIC of polymyxin B by LB agar plate method; assay type: functional, organism-based; settings: dose 10-50 µM
Pseudomonas aeruginosa [2] = assay: Antibacterial activity against Pseudomonas aeruginosa PAO1 infected in Caenorhabditis elegans assessed as worm survival rate at 50 uM measured after 72 hrs in presence of tobramycin at 1/2 MIC by bright field microscopic analysis relative to control; assay type: functional
Pseudomonas aeruginosa [3] = assay: Synergistic antibacterial activity against Pseudomonas aeruginosa clinical isolate 1121 assessed as reduction in bacterial viability at 10 to 50 uM incubated for 24 hrs in presence of 1/4 MIC of tobramycin by LB agar plate method; assay type: functional, organism-based; settings: dose 10-50 µM
Pseudomonas aeruginosa [4] = assay: Antibiofilm activity against Pseudomonas aeruginosa PAO1 assessed as decrease in biofilm formation incubated for 24 hrs by LIVE/DEAD BacLight staining based 3D confocal laser scanning microscopy; assay type: functional, organism-based; settings: dose 1-10 µM
Pseudomonas aeruginosa [5] = assay: Antibiofilm activity against Pseudomonas aeruginosa clinical isolate 1167 assessed as reduction in biofilm content at 10 uM incubated for 24 hrs by crystal violet staining based analysis; assay type: functional, organism-based
Pseudomonas aeruginosa [6] = assay: Synergistic antibacterial activity against Pseudomonas aeruginosa clinical isolate 0815 assessed as reduction in bacterial viability at 10 to 50 uM incubated for 24 hrs in presence of 1/2 MIC of tobramycin by LB agar plate method; assay type: functional, organism-based; settings: dose 10-50 µM
Pseudomonas aeruginosa [7] = assay: Synergistic antibacterial activity against Pseudomonas aeruginosa PAO1 assessed as fold reduction in bacterial survival rate at 50 uM incubated for 24 hrs in presence of 1/2 MIC of […] by LB agar plate method relative to polymyxin B alone; assay type: functional
Pseudomonas aeruginosa [8] = assay: Antibiofilm activity against Pseudomonas aeruginosa harboring pvds-deficient mutant assessed as inhibition of biofilm formation at 0.1 to 20 uM incubated for 24 hrs by crystal violet staining based analysis; assay type: functional, organism-based; settings: dose 0.1-20 µM
[9] = Inhibition of quorum sensing system in Pseudomonas aeruginosa PAO1 transfected with mini-ctx-lacZ reporter gene assessed as decrease in beta-galactosidase activity at 1.25 to 20 uM incubated for 6 hrs by Miller assay; settings: dose 1.25-20 µM
[10] = Hemolytic activity in rabbit erythrocytes assessed as hemolysis rate at 200 uM incubated for 2 hrs by microplate reader analysis (reference value: 100 %); assay type: toxicity, cell-based, Oryctolagus cuniculus, Erythrocyte; settings: read-out: Activity
Pseudomonas aeruginosa [11] = assay: Antibacterial activity against Pseudomonas aeruginosa 27853 assessed as inhibition of bacterial growth incubated for 24 hrs by CLSI protocol based method; assay type: functional, organism-based
Pseudomonas aeruginosa [12] = assay: Induction of Fe3+ chelating activity in Pseudomonas aeruginosa PAO1 assessed as increase in pyoverdine production by measuring fold change at 20 uM incubated for 24 hrs by fluorescence microplate reader
Pseudomonas aeruginosa [13] = assay: Antivirulence activity in Pseudomonas aeruginosa clinical isolate 1167 assessed as reduction in elastase production at 10 uM incubated for 24 hrs by elastin-congo red dye based absorbance assay; assay type: functional, organism-based
Pseudomonas aeruginosa [14] = assay: Synergistic antibacterial activity against Pseudomonas aeruginosa clinical isolate 1121 assessed as reduction in bacterial viability at 10 to 50 uM incubated for 24 hrs in presence of 1/2 MIC of polymyxin B by LB agar plate method; assay type: functional, organism-based; settings: dose 10-50 µM
Pseudomonas aeruginosa [15] = assay: Antibacterial activity against Pseudomonas aeruginosa clinical isolate 0808 assessed as inhibition of bacterial growth incubated for 24 hrs by CLSI protocol based method; assay type: functional, organism-based
Pseudomonas aeruginosa [16] = assay: Synergistic antibacterial activity against Pseudomonas aeruginosa PAO1 assessed as bacterial survival rate at 50 uM incubated for 24 hrs in presence of 1/2 MIC of tobramycin by LB agar plate method relative to control; assay type: functional
Pseudomonas aeruginosa [17] = assay: Synergistic antibacterial activity against Pseudomonas aeruginosa PAO1 assessed as reduction in cell viability at 10 to 50 uM incubated for 24 hrs in the presence of 1/2 MIC of tobramycin by LB agar plate method; assay type: functional, organism-based; settings: dose 10-50 µM
Pseudomonas aeruginosa [18] = assay: Synergistic antibacterial activity against Pseudomonas aeruginosa clinical isolate 1167 assessed as reduction in bacterial viability at 10 to 50 uM incubated for 24 hrs in presence of 1/4 MIC of tobramycin by LB agar plate method; assay type: functional, organism-based; settings: dose 10-50 µM
Pseudomonas aeruginosa [19] = assay: Antibiofilm activity against Pseudomonas aeruginosa PAO1 assessed as inhibition of biofilm formation incubated for 24 hrs by crystal violet staining based analysis; assay type: functional, organism-based; settings: PAO1, 24 h
Pseudomonas aeruginosa [20] = assay: Synergistic antibacterial activity against Pseudomonas aeruginosa PAO1 assessed as fold reduction in bacterial survival rate at 50 uM incubated for 24 hrs in presence of 1/2 MIC of tobramycin by LB agar plate method relative to tobramycin alone; assay type: functional
Pseudomonas aeruginosa [21] = assay: Antivirulence activity in Pseudomonas aeruginosa clinical isolate 0815 assessed as reduction in rhamnolipid production at 10 uM incubated for 24 hrs by absorbance based microtiter plate reader analysis; assay type: functional, organism-based
Pseudomonas aeruginosa [22] = assay: Antibacterial activity against Pseudomonas aeruginosa PAO1 assessed as inhibition of bacterial growth at 0.1 to 50 uM measured upto 24 hrs by CLSI protocol based method; assay type: functional, organism-based; settings: dose 0.1-50 µM

Cc1cc(=O)c(O)c(C(=O)NCCCCCCCCNc2ccnc3cc(Cl)ccc23)n1C.Cl
Activity (Pseudomonas aeruginosa [1]): Active | survival at 50 µM (Pseudomonas aeruginosa [2]): 81.5% | Activity (Pseudomonas aeruginosa [3]): Active | Activity (Pseudomonas aeruginosa [4]): Dose-Dependent Effect | Activity (Pseudomonas aeruginosa [5]): Active | Activity (Pseudomonas aeruginosa [6]): Active | fold change (FC) (Pseudomonas aeruginosa [7]): ~100 | Activity (Pseudomonas aeruginosa [8]): Active | inhibition [9]: inactive | hemolysis at 2 h, 200 µM [10]: < 1.5% | Activity (Pseudomonas aeruginosa [11]): inactive | fold change (FC) (Pseudomonas aeruginosa [12]): 10 | Activity (Pseudomonas aeruginosa [13]): Active | Activity (Pseudomonas aeruginosa [14]): Active | Activity (Pseudomonas aeruginosa [15]): inactive | survival at 50 µM (Pseudomonas aeruginosa [16]): < 0.2% | Activity (Pseudomonas aeruginosa [17]): Active | Activity (Pseudomonas aeruginosa [18]): Active | IC50 (Pseudomonas aeruginosa [19]): 5.8 µM | fold change (FC) (Pseudomonas aeruginosa [20]): ~60 | Activity (Pseudomonas aeruginosa [21]): Active | Activity (Pseudomonas aeruginosa [22]): inactive
